In experiment [1] the test system is E-cadherin. Put plainly: E-cadherin cleavage in staurosporine-treated (apoptotic) A431 cells (Western blot). Format: cell-based, human. Here is the method:
Cell Cultures and transfections. Cells were grown in Dulbecco's Modified Eagle Medium (DMEM) plus 10% fetal bovine serum, penicillin and streptomycin in 5% CO2 at 37° C. […] A431 cells were from American Type Culture Collection. […] A431D cells stably transfected with wild-type or GGG759-761AAA mutant E-cadherin were provided by Dr. A. B. Reynolds.
(§1) Immunoprecipitations (IPs), immunoblotting, immunofluorescence and confocal microscopy. For WB analysis of cell extracts, cells were washed with PBS and then solubilized in RIPA buffer. For IPs cells were solubilized in Hepes buffer (25 mM Hepes [pH 7.4], 150 mM NaCl, 1× Complete protease inhibitor cocktail, Roche) containing 1% digitonin (IPs with I-R222 and PI-R222 antibodies) or 1% Triton X-100 (IPs with β-catenin and desmoglein antibodies). Following centrifugation at 17,000×g for 10 min, supernatants (1 mg protein) were pre-cleared with protein A- or protein G-agarose (Pierce) for 2 hours. Supernatants were then incubated with antibodies overnight at 4° C. and treated for 2 hours with protein A-agarose (polyclonal antibodies) or with protein G-agarose (monoclonal antibodies). IPs were washed with Hepes buffer containing either 1% digitonin or 1% Triton X-100 and analyzed by SDS-PAGE. Immunofluorescence and confocal microscopy was performed as described by Georgakopoulos et al., (1999). Briefly, cells were plated on 22×22 mm collagen-coated glass coverslips, fixed in cold methanol for 10 min at −20° C. Following washing in TBS (25 mM Tris-HCl [pH 7.4], 150 mM NaCl), cells were treated with 10% goat serum in SuperBlock (Pierce) for 1 hour, incubated overnight with primary antibody (1:100), washed in TBS and then were incubated with species specific Alexa Fluor™ secondary antibody conjugates (Molecular Probes). Cells were washed with TBS, mounted with Prolong antifade kit (Molecular Probes), and photographed on a Leica confocal laser scanning microscope.
Conditional media (20 μl) from A431 cells cultured in the absence or presence of […] and treated with SDS as above were probed on Western blots with anti-E-cadherin ectodomain antibody H108.
(In general: Immunoblotting shows a protein as a band on a membrane.)

Experiment [2] relates to N-cadherin. Put plainly: N-cadherin processing in fibroblast cultures (Western blot, C32). Format: cell-based, mouse. Conditions: GM6001, FIG. 7B lanes 5 and 6. Here is the method: Extracts from PS1+/+ or PS1−/− mouse embryos were probed on WBs with either anti-cytoplasmic N-cadherin antibody (FIG. 7A, upper panel) or anti-PS I/CTF antibody 33B10 (FIG. 7A, lower panel). Extracts from PS1+/+ or PS1−/− fibroblast cultures were incubated for 16 hours in the absence or presence of DMSO, L-685,458 (0.5 μM) and probed on WBs with either C32 or 33B10 antibodies.

For experiment [3], the system named is N-cadherin. Put plainly: N-Cad/CTF2 production in rat primary neuronal cultures after stimulation. Particulars: for N-Cad/CTF2 production on stimulation: 15 minutes stimulation with KCl (50 (unit uncertain)), L-Glutamate (50 (unit uncertain)) or NMDA (50 (unit uncertain)). In kind it is cell-based. The arrangement: N-Cad/CTF2 production on stimulation / K+-induced increase in N-Cad/CTF2 / L-glutamate-induced increase in N-Cad/CTF2: unit of the concentration uncertain. Here is the method: Primary, neuronal cultures. Mixed hippocampal and cortical neuronal cultures were prepared from E18 mouse or rat brains as described by Banker and Goslin (1991) Culturing Nerves Cells, London, MIT Press. Neurons were maintained 10 days in vitro in glial conditioned MEM containing 2% glucose and N2 supplements as described by Bottenstein and Sato (1979) Proc. Natl. Acad. Sci. USA 76: 514-517, and then were stimulated for 15 minutes with Mg2+-free Hanks' balanced salt solution (HBSS, Sigma) containing KCl (50 mM), L-Glutamate ([…]) or NMDA ([…]). D-APV ([…]) was applied 15 minutes before stimulation.
In vitro γ-secretase-like ε-cleavage assay. Cells were washed in PBS, resuspended in 1 ml of 4° C. hypotonic buffer (10 mM MOPS, pH 7.0, 10 mM KCl) and homogenized on ice. A post-nuclear supernatant was prepared by centrifugation at 1000×g for 15 minutes at 4° C. Crude membranes were isolated from the post-nuclear supernatant by centrifugation at 16,000×g for 40 minutes at 4° C. The membranes were then resuspended in […] of assay buffer (150 mM sodium citrate, pH 6.4, 1× Complete protease inhibitor cocktail), and incubated at 37° C. for 2 hours. Samples were either analyzed directly by WB or separated into pellet (P100) and supernatant (S100) fractions by ultracentrifugation for 1 hour at 100,000×g at 4° C. The S100 and P100 fractions were then analyzed by WB.
Rat brain neurons were pre-incubated in the absence (−) or presence (+) of D-APV and then stimulated with either KCl, L-glutamate (L-gly) or NMDA. Membranes from these neurons were used in in vitro assays for production of N-Cad/CTF2.

The subject of experiment [4] is E-cadherin/catenin cytoskeletal complex. Put plainly: Ionomycin-induced CAJ disassembly in A431 cells, subcellular fractionation and Western blot. Particulars: ionomycin 10 μM, absence of inhibitor. In kind it is cell-based, human. As to the method:
Subcellular fractionation. Confluent A431 cells (one 100 mm dish) were rinsed and scraped with 4° C. phosphate-buffered saline (PBS). Cells were then placed into 1 ml of buffer A (20 mM Tris-HCl [pH 7.5], 0.25 M sucrose, 10 mM EGTA, 2 mM EDTA, 1× Complete protease inhibitor cocktail, Roche), passed through a 27 gauge needle 10 times, and the obtained cell lysate was centrifuged at 500×g for 10 min at 4° C. The supernatant was then centrifuged at 120,000×g for 45 min at 4° C. to separate the cytosolic and crude membrane fractions. The pellet (crude membrane fraction) was washed twice with buffer A and resuspended by sonication in […] of buffer A containing 1% Triton X-100. The suspension was incubated at 4° C. for 30 min and then centrifuged at 120,000×g for 45 min at 4° C. to separate the membrane and Triton X-100-insoluble fractions. The pellet (Triton X-100-insoluble fraction) was washed twice with buffer A and solubilized by sonication in RIPA buffer. […] of proteins from the different fraction were analyzed by SDS-PAGE.
In stable cell-cell adhesion, the E-cadherin/β-catenin complex of the CAJ is anchored to the actin cytoskeleton via catenin and this association is manifested by the insolubility of the complex components in Triton X-100 (Baki et al., (2001)). Induction of apoptosis or calcium influx disrupts cadherin-mediated cell-cell adhesion by cleaving cadherin and disassembling the CAJ complexes. To determine whether the γ-secretase cleavage of E-cadherin is involved in the CAJ disassembly, calcium influx was induced with ionomycin (10 μM) in A431 cells preincubated for 30 minutes in the absence or presence of the γ-secretase inhibitor L-685,458. Cell extracts were fractionated, and analyzed on Western blots with antibodies against cytoplasmic E-cadherin C36 or β- and α-catenins. […] In addition, L-685,458 delayed the ionomycin-induced decrease of cytoskeletal β-catenin and α-catenin and inhibited their release to the soluble cytosol.

Another experiment has as its system A431 cells. As to the kind of experiment: Laser scanning confocal microscopy of ionomycin-induced cell-cell dissociation. Format: cell-based, human. Conditions: ionomycin 45 minutes. Here is the method:
as §1
The PS1/γ-secretase role in the disassembly of CAJ was further examined using laser scanning confocal microscopy (LSCM). A431 cells were pre-incubated for 30 minutes in the absence or presence of L-685,458 and then treated for 45 minutes with ionomycin. Following the ionomycin-induced cell-cell dissociation, the distribution of PS1, E-cadherin, β-catenin and α-catenin was analyzed by LSCM using the constant detector setting. […]

The test system of experiment [5] is E-cadherin. As to the kind of experiment: Ionomycin treatment of A431D cells transfected with WT or GGG759-761AAA mutant E-cadherin. Format: cell-based. Conditions: ionomycin 45 minutes. Here is the method: Cell Cultures and transfections. Cells were grown in Dulbecco's Modified Eagle Medium (DMEM) plus 10% fetal bovine serum, penicillin and streptomycin in 5% CO2 at 37° C. Fibroblast cell lines derived either from wild-type (WT) (PS1+/+) or PS1 knock-out (PS1−/−) mice were stably transfected with human E-cadherin as described by Baki et al., (2001). A431 cells were from American Type Culture Collection. Stable transfectants of PS1 cDNA in HEK293 cells were prepared as described by Georgakopoulos et al., (1999). A431D cells stably transfected with wild-type or GGG759-761AAA mutant E-cadherin were provided by Dr. A. B. Reynolds.
A431D cells stably transfected with WT E-cadherin or with the E-cadherin mutant were incubated in the absence or presence of ionomycin for 45 minutes and RIPA extracts were probed on Western blots with C36 antibody. Cytosolic fractions were probed with antibodies against E-cadherin (C36), β-catenin or α-catenin. […] Furthermore, no soluble E-Cad/CTF2 was detected in mutant transfectants either in the presence or absence of ionomycin. Thus, PS1 binding to E-cadherin is required for the PS1/γ-secretase cleavage of E-cadherin and for the release of E-Cad/CTF2, β-catenin and α-catenin to the soluble cytosol.

For another experiment, the system named is Aβ40 and Aβ42. Put plainly: Secreted Aβ ELISA in CHO cells expressing Swedish APP mutant. Format: cell-based. Conditions: transient transfection, vs vector cDNA, FIG. 4B. Here is the method:
CHO cells expressing Swedish APP mutant were transiently transfected with vector cDNA (vector), full length E-cadherin (E-cadherin), a cDNA construct encoding the transmembrane and ectodomain sequence of E-cadherin (EC0) or a cDNA expressing the entire cytoplasmic sequence of E-cadherin (CTF2). Secreted Aβ40 and Aβ42 were determined by ELISA. Each value is a mean±SD from three assays each performed in duplicate. […] Expression of transfected proteins in swCHO cells was monitored by Western blotting.
A general note: ELISA stands for enzyme-linked immunosorbent assay.

This is an account of results in patent US7884067B2, “Peptides derived from cadherin and methods of use thereof” (Mount Sinai School of Medicine of New York University, priority 2001, dated 2011).

Take `CNC(=O)[C@H](Cc1c[nH]c2ccccc12)NC(=O)[C@@H](CC(=O)NO)CC(C)C` [GM6001]: in the experiment on E-cadherin [1] (30 minutes preincubation with GM6001 (2.5 μM), then STS 6 hours), the “production of the 38 kDa fragment (E-Cad/CTF1)” value is given as “inhibited”. Moreover, the “secreted 95 kDa fragment (E-Cad/NTF1), effect of MMP inhibitor in STS-treated cells” value with E-cadherin [1] (antibody H108) was “inhibited”. Moreover, in the experiment on N-cadherin [2], the N-Cad/CTF1 entry is recorded as “decreased” and the “full length N-cadherin” value is “increased”.
Turning to `[Cl-].[K+]` [KCl], in the experiment with N-cadherin [3], the “N-Cad/CTF2 production on stimulation” value is recorded as “stimulated”.
Same read-out and setting: next, `N[C@@H](CCC(=O)O)C(=O)O` [L-glutamate, L-Glutamate]: “induced an increase in N-Cad/CTF2”.
On to `C[C@H](CCC(=O)O)C[C@H](C)C[C@H](C)C(=O)/C=C(\O)[C@H](C)C[C@H](C)C/C=C/[C@@H](C)[C@@H](O)[C@@H](C)[C@@H](O)C[C@@H]1CC[C@@](C)([C@H]2CC[C@@](C)([C@@H](C)O)O2)O1` [ionomycin], for which, in experiment [4], the “cytoskeletal (Triton X-100-insoluble) fraction of full-length E-cadherin and E-Cad/CTF1” value is reported as “time-dependent decrease”; the “cytoskeletal association (Triton X-100-insoluble fraction) of β-catenin and α-catenin” value was “decreased”; the “soluble cytosolic E-Cad/CTF2” value was “corresponding increase”; the “soluble cytosolic levels of β-catenin and α-catenin” value was “significant increase”. In addition, in the experiment with A431 cells, the cell-cell adhesion result is reported as “disrupted cell-cell adhesion”; the “plasma membrane staining of PS1, E-cadherin, β-catenin and α-catenin epitopes” value is “decreased plasma membrane staining of all epitopes”. The N-Cad/CTF2 result in the experiment on N-cadherin [3] (treatment of rat primary neuronal cultures with ionomycin) is given as “increased N-Cad/CTF2”. In addition, in the experiment on E-cadherin [5] (cells expressing WT E-cadherin), the “soluble E-Cad/CTF2, β-catenin and α-catenin in cytosolic fractions” value was “significant increase”. In addition, the “soluble β- or α-catenin in cytosolic fractions” value in the experiment with E-cadherin [5] (cells expressing mutant E-cadherin GGG759-761AAA) is recorded as “no ionomycin-induced increase”.
Regarding “CTF-2: cDNA expressing the entire cytoplasmic sequence of E-cadherin”, in the experiment with Aβ40 and Aβ42, the “secreted Aβ40” value is listed as “significantly inhibited” and the “secreted Aβ42” value is reported as “significantly inhibited”.
On to “D(−)-2-amino-5-phosphonovalerate [D-APV]”, for which, in the experiment with N-cadherin [3] (D-APV (100 (unit uncertain)) applied 15 minutes before stimulation with KCl), the “K+-induced increase in N-Cad/CTF2” value is “inhibited”. Moreover, the “L-glutamate-induced increase in N-Cad/CTF2” value in the experiment on N-cadherin [3] (D-APV (100 (unit uncertain)) applied 15 minutes before stimulation with L-glutamate) is “blocked”.
Take Z-DEVD-FMK: in the experiment on E-cadherin [1] (30 minutes preincubation with Z-DEVD-FMK (50 μM), then STS 6 hours), the “29 kDa fragment (E-Cad/CTT3)” value was “inhibited”.
